Source: publication PMC3633919, “Identification and Characterization of Pheromone Receptors and Interplay between Receptors and Pheromone Binding Proteins in the Diamondback Moth, Plutella xyllostella” (PLoS ONE, 2013)
pEC50: −log10 of the molar value.

Columns and labels:
PxylOR4/PxylOrco = molecular target: T1, PxylOR4/PxylOrco (Plutella xylostella, UniProt M9ZZM3); assay: two-electrode voltage clamp, Xenopus oocytes; type: cell-based
T1 construct: full-length untagged ORF 1209 bp (402 residues); pSP64T cRNA co-injected with PxylOrco cRNA in Xenopus laevis oocytes; with Odorant receptor coreceptor
T1 sequence (M9ZZM3 1-402): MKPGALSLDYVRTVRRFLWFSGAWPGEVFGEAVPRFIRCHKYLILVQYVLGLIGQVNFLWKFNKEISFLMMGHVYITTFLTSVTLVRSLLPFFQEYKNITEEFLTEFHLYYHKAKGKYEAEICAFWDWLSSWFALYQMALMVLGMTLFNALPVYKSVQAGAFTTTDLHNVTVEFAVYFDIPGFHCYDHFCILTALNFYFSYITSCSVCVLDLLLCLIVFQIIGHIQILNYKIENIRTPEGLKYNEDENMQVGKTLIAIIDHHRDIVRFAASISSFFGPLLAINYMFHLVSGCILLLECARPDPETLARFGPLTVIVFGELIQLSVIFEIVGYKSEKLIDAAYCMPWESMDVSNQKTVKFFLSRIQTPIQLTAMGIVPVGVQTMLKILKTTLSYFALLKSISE
T1 sequence (D0EZE1 1-471 partner): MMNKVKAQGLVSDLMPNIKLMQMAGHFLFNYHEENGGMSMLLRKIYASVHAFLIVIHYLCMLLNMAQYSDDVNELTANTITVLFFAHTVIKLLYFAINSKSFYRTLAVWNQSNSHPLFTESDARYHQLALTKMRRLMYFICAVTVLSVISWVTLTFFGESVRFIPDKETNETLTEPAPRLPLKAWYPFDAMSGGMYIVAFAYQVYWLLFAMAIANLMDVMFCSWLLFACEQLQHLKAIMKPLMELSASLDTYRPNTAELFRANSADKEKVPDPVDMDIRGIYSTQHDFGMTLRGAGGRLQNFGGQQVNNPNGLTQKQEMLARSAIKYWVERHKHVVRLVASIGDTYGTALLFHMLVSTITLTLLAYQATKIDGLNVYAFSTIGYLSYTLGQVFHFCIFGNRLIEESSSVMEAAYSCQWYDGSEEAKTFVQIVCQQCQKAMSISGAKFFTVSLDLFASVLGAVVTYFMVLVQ

PxylOR1/PxylOrco = molecular target: T2, PxylOR1/PxylOrco (Plutella xylostella, UniProt N0A395); assay: two-electrode voltage clamp, Xenopus oocytes; type: cell-based
T2 construct: full-length untagged ORF 1269 bp (422 residues); pSP64T cRNA co-injected with PxylOrco cRNA in Xenopus laevis oocytes; with Odorant receptor coreceptor
T2 sequence (N0A395 1-422): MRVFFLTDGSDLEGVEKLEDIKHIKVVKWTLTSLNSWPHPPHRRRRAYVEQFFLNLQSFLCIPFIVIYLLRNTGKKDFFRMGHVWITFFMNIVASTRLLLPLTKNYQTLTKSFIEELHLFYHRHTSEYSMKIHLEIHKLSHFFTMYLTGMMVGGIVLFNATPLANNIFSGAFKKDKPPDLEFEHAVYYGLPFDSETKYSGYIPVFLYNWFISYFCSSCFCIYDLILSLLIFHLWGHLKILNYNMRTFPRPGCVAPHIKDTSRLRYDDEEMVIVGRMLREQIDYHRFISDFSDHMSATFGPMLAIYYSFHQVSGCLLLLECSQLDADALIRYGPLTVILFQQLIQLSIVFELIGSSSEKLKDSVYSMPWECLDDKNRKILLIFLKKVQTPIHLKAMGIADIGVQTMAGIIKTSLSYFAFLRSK
T2 sequence (D0EZE1 1-471 partner): T1 sequence (D0EZE1 1-471 partner)

pEC50 (PxylOR4/PxylOrco) | pEC50 (PxylOR1/PxylOrco) | Structure (SMILES)
5.71 |  | C/C=C/C/C=C\CCCCCCCCOC(C)=O [Z9,E12-14:Ac]
6.61 |  | CCCC/C=C\CCCCCCCCOC(C)=O [Z9-14:Ac, (Z)-9-tetradecenyl acetate]
 | 4.62 | CCCC/C=C\CCCCCCCCCC=O [Z11-16:Ald, (Z)-11-hexadecenal]
